Measurements taken from article PMC8979739, “Phytochemical Profiling of the Leaf Extract of Ximenia americana var. caffra and Its Antioxidant, Antibacterial, and Antiaging Activities In Vitro and in Caenorhabditis elegans: A Cosmeceutical and Dermatological Approach” (Oxidative Medicine and Cellular Longevity, 2022).
Where two headings read alike, the source gives them in different places.

What was measured:
DPPH assay = experiment: DPPH assay
Method: (§1) Total phenolic content was estimated using the Folin–Ciocalteu method as described in a previous study, while antioxidant activity was determined using two colorimetric methods, DPPH assay and FRAP assay. The analysis was performed as in the previous study.

[1] = target: Porcine pancreatic elastase (Sus scrofa, UniProt P00772); experiment: Elastase inhibition; type: biochemical
Chain of Porcine pancreatic elastase (P00772 27-266): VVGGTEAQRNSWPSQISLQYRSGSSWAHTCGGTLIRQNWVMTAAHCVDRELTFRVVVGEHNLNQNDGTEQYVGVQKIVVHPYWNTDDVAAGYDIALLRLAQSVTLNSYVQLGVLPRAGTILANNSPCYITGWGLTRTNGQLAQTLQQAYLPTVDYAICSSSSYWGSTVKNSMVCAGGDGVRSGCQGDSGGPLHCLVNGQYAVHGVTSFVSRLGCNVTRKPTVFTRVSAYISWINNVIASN
Method: This assay was performed according to a previous study. Porcine pancreatic elastase was used in this assay at stock concentration of 3.33 mg/mL in sterile water. N-Succinyl-[…]-nitroanilide ([…]) was used as a substrate and dissolved in buffer to make up 1.6 mM solution. A serial dilution of the extract with amount of 50 μL each was incubated with the enzyme for 15 min, and the substrate was added subsequently and makes up the final reaction mixture of 250 μL. Absorbance value was measured at 400 nm using a microplate reader. Each measurement was made in triplicate. The percentage of elastase inhibition (%) was calculated according to the formula: inhibition (%) = [(Acontrol - Asample/Acontrol) × 100]. […] A control: absorbance value of the elastase activity from negative control (solution without samples)

hyaluronidase = target: T1, hyaluronidase (Bos taurus, UniProt Q2YDK3); experiment: Hyaluronidase inhibition; type: biochemical; details: mean ± SD
T1 sequence (Q2YDK3 36-553): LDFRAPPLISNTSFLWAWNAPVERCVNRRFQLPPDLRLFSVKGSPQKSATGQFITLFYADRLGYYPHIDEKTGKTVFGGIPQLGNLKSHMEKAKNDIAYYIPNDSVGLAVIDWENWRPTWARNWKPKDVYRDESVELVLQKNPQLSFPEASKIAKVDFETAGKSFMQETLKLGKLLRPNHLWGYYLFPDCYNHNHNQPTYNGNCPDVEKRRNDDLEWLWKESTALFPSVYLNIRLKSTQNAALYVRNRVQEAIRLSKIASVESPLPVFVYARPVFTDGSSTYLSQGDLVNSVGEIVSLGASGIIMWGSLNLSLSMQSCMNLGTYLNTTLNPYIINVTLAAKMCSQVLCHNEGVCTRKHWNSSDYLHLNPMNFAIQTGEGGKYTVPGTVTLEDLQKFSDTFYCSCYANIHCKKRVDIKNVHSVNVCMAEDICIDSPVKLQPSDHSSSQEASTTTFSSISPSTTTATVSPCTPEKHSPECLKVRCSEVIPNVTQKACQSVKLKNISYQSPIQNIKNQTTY
Method: The hyaluronidase inhibition assay was performed using hyaluronidase (1.5 mg/mL) and the substrate hyaluronic acid (1 mg/ml in 0.1 M acetate buffer; pH 3.5), according to a previous study. The reaction mixture was prepared consisting of 25 μL of CaCl2 (12.5 mM), 12.5 μL of each test sample (serial dilution), hyaluronidase (1.5 mg/mL), and 100 μL substrate hyaluronic acid. Afterwards, reaction mixture was placed in a water bath at 100°C for 3 min, and subsequently, 25 μL of 0.8 M KBO2 was added. After cooling to the room temperature, 800 μL DMAB (4 g DMAB in 40 mL acetic acid and 5 mL 10 N HCl) was added to the mixture following the incubation for 20 min. The absorbance was measured at 600 nm. Each measurement was made in triplicate. The percentage of hyaluronidase inhibition (%) was calculated according to the formula: inhibition (%) = [(Acontrol − Asample/Acontrol) × 100].
A sample: absorbance value of the hyaluronidase activity from samples or positive control (quercetin)
A control: absorbance value of the hyaluronidase activity from negative control (solution without samples)

mushroom tyrosinase = mushroom tyrosinase (Agaricus bisporus, UniProt C7FF04); experiment: Tyrosinase inhibition; type: biochemical; details: mean ± SD
Chain of mushroom tyrosinase (C7FF04 2-392): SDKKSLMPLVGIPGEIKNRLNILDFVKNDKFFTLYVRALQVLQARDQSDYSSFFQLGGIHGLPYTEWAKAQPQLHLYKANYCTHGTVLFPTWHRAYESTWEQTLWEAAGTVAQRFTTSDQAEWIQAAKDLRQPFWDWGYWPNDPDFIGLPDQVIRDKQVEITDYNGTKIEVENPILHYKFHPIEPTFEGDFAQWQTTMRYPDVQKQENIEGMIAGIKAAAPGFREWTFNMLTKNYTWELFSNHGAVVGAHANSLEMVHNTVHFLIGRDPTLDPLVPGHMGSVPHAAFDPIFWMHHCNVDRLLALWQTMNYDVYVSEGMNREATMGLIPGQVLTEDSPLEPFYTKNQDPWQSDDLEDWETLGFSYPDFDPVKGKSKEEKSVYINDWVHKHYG
Method: This assay was performed using mushroom tyrosinase and L-DOPA as substrates, according to a previous study with slight modifications. […] After adding L-DOPA, the reaction mixture was monitored at 475 nm for dopachrome formation using a microplate reader (Costar, 96). Each measurement was made in triplicate. The percentage of tyrosinase inhibition (%) was calculated according to the formula: inhibition (%) = [(Acontrol − Asample/Acontrol) × 100]. […] A control: absorbance value of the tyrosinase activity from negative control (solution without samples)

[2] = target: Collagenase from Clostridium histolyticum; experiment: Collagenase inhibition; type: biochemical; details: mean ± SD
Method: The assay was performed according to a previous study. Collagenase was obtained from Clostridium histolyticum (ChC—EC.3.4.23.3), and the assay was performed in 50 mM Tricine buffer consisting of 400 mM NaCl and 10 mM CaCl2 (pH 7.5). Collagenase was dissolved in the buffer to achieve an enzyme activity concentration of 0.8 unit/mL, and the synthetic substrate N-[3-(2-furyl) acryloyl]-Leu-Gly-Pro-Ala (FALGPA) was dissolved in the buffer to make up the final concentration of 2 mM. Serial diluted samples were incubated with the enzyme for 15 min. After that, the substrate was added to each serial solution. Absorbance was measured using a microplate reader (Costar, 96) at 490 nm. Each measurement was made in triplicate. Percentage of collagenase inhibition (%) was calculated according to the formula: inhibition (%) = [(Acontrol − Asample/Acontrol) × 100].
A sample: absorbance value of the collagenase activity from samples or positive control (quercetin)
A control: absorbance value of the collagenase activity from negative control (solution without samples)

FRAP assay = experiment: FRAP assay
Method: as §1

[3] = mean ± SD, read-out: Elastase IC50 (converted)

Compound | Collagenase IC50 [2] | IC50 [1, 3] | further results
O=C1O[C@H]([C@@H](O)CO)C(O)=C1O [Ascorbic acid] | – | – | DPPH (EC50) (DPPH assay): 2.92 ± 0.29 µg/mL
O.Oc1cc(O)c2c(c1)O[C@H](c1ccc(O)c(O)c1)[C@@H](O)C2 [Catechin] | 29.33 ± 2.4 µg/mL | – | Elastase IC50 ([1]; mean ± SD): 15.00 ± 5.9 µg/mL; Hyaluronidase IC50 (hyaluronidase): 22.99 ± 0.2 µg/mL; Tyrosinase IC50 (mushroom tyrosinase): 22.54 ± 4.61 µg/mL
Oc1cc(O)c2c(c1)O[C@H](c1ccc(O)c(O)c1)[C@H](O)C2 [Epicatechin] | 65.96 ± 7.8 µg/mL | 145 µM | –
O=c1cc(CO)occ1O [Kojic acid, reference compound] | – | – | IC50 [1]: 152 µM
O=c1c(O)c(-c2ccc(O)c(O)c2)oc2cc(O)cc(O)c12 [Quercetin] | – | – | FRAP (FRAP assay): 24.04 ± 1.23 mM FeSO4/mg extract
O=C(O)[C@]1(O)C[C@@H](O)[C@@H](O)[C@H](O)C1 [Quinic acid] | 52.78 ± 1.8 µg/mL | 748 µM | –
C[C@@H]1O[C@@H](OC[C@H]2O[C@@H](Oc3c(-c4ccc(O)c(O)c4)oc4cc(O)cc(O)c4c3=O)[C@H](O)[C@@H](O)[C@@H]2O)[C@H](O)[C@H](O)[C@H]1O [Rutin] | 63.46 ± 3.4 µg/mL | 199 µM | –
